The values below come from patent publication US20240300980A1, “HETEROCYCLIC COMPOUNDS AS KRAS INHIBITOR, AND PREPARATION THEREFOR AND USE THEREOF IN TREATMENT” (SHANGHAI KECHOW PHARMA, INC., priority 2021, published 2024).

Bounds are passed on as bounds.

The subject of one experiment is AGS cells (KRAS^G12D). Kind of experiment: Detection of cell proliferation in vitro by MTT/MTS method (cell activity experiment). In kind it is cell-based. As to conditions: AGS cells; MTT/MTS; 3 days of drug treatment; read-out: AGS IC50. A digest of the protocol: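 KRAS G12D AGS cells seeded at 1000 per well, compound added 24 h later, 0.5% final DMSO. Viability read after 3 days of treatment by MTT (solubilised in DMSO) or MTS, 4 h, absorbance 490 nm. IC50 from dose–response curves versus DMSO control.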
In general terms: Tetrazolium dyes change colour on reduction, which living cells bring about.
A word on the IC50: it is the concentration that gives 50% inhibition. For the compound `C#Cc1c(F)ccc2cc(O)cc(-c3ccc4c(N5C[C@H]6CC[C@@H](C5)[C@@H]6F)nc(OC[C@@]56CCCN5C[C@H](F)C6)nc4c3F)c12` [Example 123, 5-ethynyl-6-fluoro-4-(8-fluoro-4-((1R,5S, 8R)-8-fluoro-3-azabicyclo[3.2.1]octan-3-yl)-2-(((2R,7aS)-2-fluorotetrahydro-1H-pyrrolizin-7a(5H)-yl)methoxy)quinazolin-7-yl)naphthalen-2-ol], the IC50 is above 2500 nM.
As to `CCc1c(F)ccc2cc(O)cc(-c3ccc4c(N5C[C@H]6CC[C@@H](C5)[C@@H]6F)nc(OC[C@@]56CCCN5C[C@H](F)C6)nc4c3F)c12` [Example 124, 5-ethyl-6-fluoro-4-(8-fluoro-4-((1R,5S, 8R)-8-fluoro-3-azabicyclo[3.2.1]octan-3-yl)-2-(((2R,7aS)-2-fluorotetrahydro-1H-pyrrolizin-7a(5H)-yl)methoxy)quinazolin-7-yl)naphthalen-2-ol], the concentration for half-maximal inhibition (IC50) is above 2500 nM.
On the same count and under the same terms, the same measure for `C#Cc1cccc2cc(O)cc(-c3ccc4c(N5C[C@H]6CC[C@@H](C5)[C@@H]6F)nc(OC[C@@]56CCCN5C[C@H](F)C6)nc4c3F)c12` [Example 125, 5-ethynyl-4-(8-fluoro-4-((1R,5S,8R)-8-fluoro-3-azabicyclo [3.2.1]octan-3-yl)-2-(((2R,7aS)-2-fluorotetrahydro-1H-pyrrolizin-7a(5H)-yl)methoxy)quinazolin-7-yl)naphthalen-2-ol]: above 2500 nM.
`Oc1cc(-c2ccc3c(N4C[C@H]5CC[C@@H](C4)[C@@H]5F)nc(OC[C@@]45CCCN4C[C@H](F)C5)nc3c2F)c2c(F)c(F)ccc2c1` [Example 126, 5,6-difluoro-4-(8-fluoro-4-((1R,5S,8R)-8-fluoro-3-azabicyclo [3.2.1]octan-3-yl)-2-(((2R,7aS)-2-fluorotetrahydro-1H-pyrrolizin-7a(5H)-yl)methoxy)quinazolin-7-yl)naphthalen-2-ol]: the 50% inhibitory concentration (IC50) is above 2500 nM.
`C#Cc1c(F)ccc2cc(O)cc(-c3ccc4c(N5C[C@H]6CC[C@@H](C5)[C@@H]6C#N)nc(OC[C@@]56CCCN5C[C@H](F)C6)nc4c3F)c12` [Example 127, (1R,5S,8S)-3-(7-(8-ethynyl-7-fluoro-3-hydroxynaphthalen-1-yl)-8-fluoro-2-(((2R,7aS)-2-fluorotetrahydro-1H-pyrrolizin-7a(5H)-yl)methoxy)quinazolin-4-yl)-3-azabicyclo [3.2.1]octane-8-carbonitrile]: the 50% inhibitory concentration (IC50) was above 2500 nM.
Consider `C#Cc1c(F)ccc2cc(O)cc(-c3ccc4c(N5C[C@H]6CC[C@@H](C5)[C@@H]6N)nc(OC[C@@]56CCCN5C[C@H](F)C6)nc4c3F)c12` [Example 128, 4-(4-((1R,5S,8R)-8-amino-3-azabicyclo [3.2.1]octan-3-yl)-8-fluoro-2-(((2R,7aS)-2-fluorotetrahydro-1H-pyrrolizin-7a(5H)-yl)methoxy)quinazolin-7-yl)-5-ethynyl-6-fluoronaphthalen-2-ol], for which the IC50 is above 2500 nM.
`C#Cc1c(F)ccc2cc(O)cc(-c3ccc4c(N5C[C@H]6CC[C@@H](C5)[C@@H]6SC)nc(OC[C@@]56CCCN5C[C@H](F)C6)nc4c3F)c12` [Example 129, 5-ethynyl-6-fluoro-4-(8-fluoro-2-(((2R,7aS)-2-fluorotetrahydro-1H-pyrrolizin-7a(5H)-yl)methoxy)-4-((1R, 5S,8R)-8-(methylthio)-3-azabicyclo[3.2.1]octan-3-yl)quinazolin-7-yl)naphthalen-2-ol]: the IC50 was above 2500 nM.
Turning to `C#Cc1c(F)ccc2cc(O)cc(-c3ccc4c(N5C[C@H]6CC[C@@H](C5)C6[S+](C)[O-])nc(OC[C@@]56CCCN5C[C@H](F)C6)nc4c3F)c12` (stereo partly drawn) [Example 130, 5-ethynyl-6-fluoro-4-(8-fluoro-2-(((2R,7aS)-2-fluorotetrahydro-1H-pyrrolizin-7a(5H)-yl)methoxy)-4-((1R,5S, 8R)-8-(methylsulfinyl)-3-azabicyclo[3.2.1]octan-3-yl)quinazolin-7-yl)naphthalen-2-ol], the half-maximal inhibitory concentration (IC50) is above 2500 nM.
Regarding `C#Cc1c(F)ccc2cc(O)cc(-c3ccc4c(N5C[C@H]6CC[C@@H](C5)[C@@H]6S(C)(=O)=O)nc(OC[C@@]56CCCN5C[C@H](F)C6)nc4c3F)c12` [Example 131, 5-ethynyl-6-fluoro-4-(8-fluoro-2-(((2R,7aS)-2-fluorotetrahydro-1H-pyrrolizin-7a(5H)-yl)methoxy)-4-((1R,5S, 8R)-8-(methylsulfonyl)-3-azabicyclo[3.2.1]octan-3-yl)quinazolin-7-yl)naphthalen-2-ol], the half-maximal inhibitory concentration (IC50) is above 2500 nM.
Take `C#Cc1c(F)ccc2cc(O)cc(-c3ccc4c(N5C[C@H]6CC[C@@H](C5)[C@@H]6S(=O)(=O)C(F)(F)F)nc(OC[C@@]56CCCN5C[C@H](F)C6)nc4c3F)c12` [Example 132, 5-ethynyl-6-fluoro-4-(8-fluoro-2-(((2R,7aS)-2-fluorotetrahydro-1H-pyrrolizin-7a(5H)-yl)methoxy)-4-((1R,5S, 8R)-8-((trifluoromethyl)sulfonyl)-3-azabicyclo [3.2.1]octan-3-yl)quinazolin-7-yl) naphthalen-2-ol]: the 50% inhibitory concentration (IC50) was above 2500 nM.

Still in this experiment, the particulars now being: Homo sapiens, AGS, 72 h, AGS cells; MTT/MTS; 3 days of drug treatment; read-out: AGS IC50.
`CCc1c(F)ccc2cc(O)cc(-c3ccc4c(N5C[C@H]6CC[C@@H](C5)C6(F)F)nc(OC[C@@]56CCCN5C[C@H](F)C6)nc4c3F)c12` [Example 120, 4-(4-((1R,5S)-8,8-difluoro-3-azabicyclo [3.2.1]octan-3-yl)-8-fluoro-2-(((2R,7aS)-2-fluorotetrahydro-1H-pyrrolizin-7a(5H)-yl)methoxy)quinazolin-7-yl)-5-ethyl-6-fluoronaphthalen-2-ol]: the half-maximal inhibitory concentration (IC50) was above 2500 nM.
With `C#Cc1cccc2cc(O)cc(-c3ccc4c(N5C[C@H]6CC[C@@H](C5)C6(F)F)nc(OC[C@@]56CCCN5C[C@H](F)C6)nc4c3F)c12` [Example 121, 4-(4-((1R,5S)-8,8-difluoro-3-azabicyclo [3.2.1]octan-3-yl)-8-fluoro-2-(((2R,7aS)-2-fluorotetrahydro-1H-pyrrolizin-7a(5H)-yl)methoxy)quinazolin-7-yl)-5-ethynylnaphthalen-2-ol], the 50% inhibitory concentration (IC50) was above 2500 nM.
Same read-out and setting: then `Oc1cc(-c2ccc3c(N4C[C@H]5CC[C@@H](C4)C5(F)F)nc(OC[C@@]45CCCN4C[C@H](F)C5)nc3c2F)c2c(F)c(F)ccc2c1` [Example 122, 4-(4-((1R,5S)-8,8-difluoro-3-azabicyclo [3.2.1]octan-3-yl)-8-fluoro-2-(((2R,7aS)-2-fluorotetrahydro-1H-pyrrolizin-7a(5H)-yl)methoxy)quinazolin-7-yl)-5,6-difluoronaphthalen-2-ol], with above 2500 nM.
For `C#Cc1c(F)ccc2cc(O)cc(-c3ccc4c(N5CCC(C#N)CC5)nc(OC[C@@]56CCCN5C[C@H](F)C6)nc4c3F)c12` [Example 133, 1-(7-(8-ethynyl-7-fluoro-3-hydroxynaphthalen-1-yl)-8-fluoro-2-(((2R, 7aS)-2-fluorotetrahydro-1H-pyrrolizin-7a(5H)-yl)methoxy)quinazolin-4-yl)piperidine-4-carbonitrile], the IC50 was above 2500 nM.
For `C#Cc1c(F)ccc2cc(O)cc(-c3ccc4c(N5CC(C#N)C5)nc(OC[C@@]56CCCN5C[C@H](F)C6)nc4c3F)c12` [Example 134, 1-(7-(8-ethynyl-7-fluoro-3-hydroxynaphthalen-1-yl)-8-fluoro-2-(((2R, 7aS)-2-fluorotetrahydro-1H-pyrrolizin-7a(5H)-yl)methoxy)quinazolin-4-yl)azetidine-3-carbonitrile], the half-inhibitory concentration (IC50) worked out at 586 nM.
`C#Cc1c(F)ccc2cc(O)cc(-c3ccc4c(N5CC6(CNC6)C5)nc(OC[C@@]56CCCN5C[C@H](F)C6)nc4c3F)c12` [Example 135, 5-ethynyl-6-fluoro-4-(8-fluoro-2-(((2R, 7aS)-2-fluorotetrahydro-1H-pyrrolizin-7a(5H)-yl)methoxy)-4-(2,6-diazaspiro[3.3]heptan-2-yl)quinazolin-7-yl)naphthalen-2-ol]: the IC50 came out at 1200 nM.
Take `C#Cc1c(F)ccc2cc(O)cc(-c3ccc4c(C56CCN(CC5)CC6)nc(OC[C@@]56CCCN5C[C@H](F)C6)nc4c3F)c12` [Example 136, 5-ethynyl-6-fluoro-4-(8-fluoro-2-(((2R,7aS)-2-fluorotetrahydro-1H-pyrrolizin-7a(5H)-yl)methoxy)-4-(quinuclidin-4-yl)quinazolin-7-yl)naphthalen-2-ol]: the IC50 was above 2500 nM.
The same measure, in the same setting: then `C#Cc1c(F)ccc2cc(O)cc(-c3ccc4c(C5C[C@H]6CC[C@@H](C5)N6)nc(OC[C@@]56CCCN5C[C@H](F)C6)nc4c3F)c12` (stereo partly drawn) [Example 137, 4-(4-((1R,5S)-8-azabicyclo[3.2.1]octan-3-yl)-8-fluoro-2-(((2R,7aS)-2-fluorotetrahydro-1H-pyrrolizin-7a(5H)-yl)methoxy)quinazolin-7-yl)-5-ethynyl-6-fluoronaphthalen-2-ol], with above 2500 nM; and `C#Cc1cccc2cc(O)cc(-c3ccc4c(C5C[C@H]6CC[C@@H](C5)N6)nc(OC[C@@]56CCCN5C[C@H](F)C6)nc4c3F)c12` (stereo partly drawn) [Example 138, 4-(4-((1R,5S)-8-azabicyclo[3.2.1]octan-3-yl)-8-fluoro-2-(((2R, 7aS)-2-fluorotetrahydro-1H-pyrrolizin-7a(5H)-yl)methoxy)quinazolin-7-yl)-5-ethynylnaphthalen-2-ol], with above 2500 nM; and `Cc1cc(N)nc(-c2ccc3c(N4C[C@H]5CC[C@@H](C4)N5)nc(OC[C@@]45CCCN4C[C@H](F)C5)nc3c2F)c1C1CC1` [Example 139, 6-(4-((1R,5S)-3,8-diazabicyclo[3.2.1]octan-3-yl)-8-fluoro-2-(((2R,7aS)-2-fluorotetrahydro-1H-pyrrolizin-7a(5H)-yl)methoxy)quinazolin-7-yl)-5-cyclopropyl-4-methylpyridin-2-amine], with above 2500 nM.
In the case of `C#Cc1c(F)ccc2cc(O)cc(-c3ccc4c(N5C[C@H]6CC[C@@H](C5)N6)nc(OC[C@@]56CCCN5C[C@H](F)C6)nc4n3)c12` [Example 140, 4-(4-((1R,5S)-3,8-diazabicyclo[3.2.1]octan-3-yl)-2-(((2R, 7aS)-2-fluorotetrahydro-1H-pyrrolizin-7a(5H)-yl)methoxy)pyrido[2,3-d]pyrimidin-7-yl)-5-ethynyl-6-fluoronaphthalen-2-ol], the IC50 is above 2500 nM.
